US20120282169A1, “DETECTION AND TREATMENT OF TRAUMATIC BRAIN INJURY” (Adlyfe, Inc., priority 2009, published 2012)
[ ]: non-standard residue; d: D form. The star is where a group is joined. Butanoyl(4-pyren-1-yl) = O=C(CCCc1ccc2ccc3cccc4ccc1c2c34)*; Biotin = O=C1N[C@H]2[C@H](CS[C@H]2CCCCC(=O)*)N1

What was measured:
[1] = molecular target: synthetic Aβ42 oligomer (Aβ42 Oligo Type A) (Homo sapiens, UniProt P05067); test: Plate-based ELISA-like assay with immobilized biotinylated peptide probe (6E10-HRP/TMB detection); assay type: binding
Method: FIG. 4A and FIG. 4B illustrate the results in buffer and 10% soluble mouse brain extract using SEQ ID NO:41 as a peptide probe. […] The white bars indicate control reactions in which peptide are not added. Black bars show the complete reaction in which 9000, 1500, 250, 42, 7, 1.2, 0.2, or 0 pM Aβ42 oligomer is added (in triplicate) to wells containing bound peptide probe of SEQ ID NO:41.
The white bars indicate control reactions in which peptide are not added. Black bars show the complete reaction in which 10% human TBS brain extract containing 750, 250, 85, 28, 9.5, 3.1, or 0 pM Aβ42 oligomer is added (in triplicate) to wells containing bound peptide probe of SEQ ID NO:41.
FIG. 5A and FIG. 5B illustrate the results in 10% (A) and 30% (B) human brain TBS extract using SEQ ID NO:41 as a peptide probe. […] The white bars indicate control reactions in which peptide is not added. Black bars show the complete reaction in which 10% human TBS brain extract containing 750, 250, 85 or 0 pM Aβ42 oligomer is added (in triplicate) to wells containing bound peptide probe of SEQ ID NO:41.
The white bars indicate control reactions in which peptide are not added. Black bars show the complete reaction in which 30% human TBS brain extract containing 750, 250, 85, 28, 9.5, 3.1, or 0 pM Aβ42 oligomer is added (in triplicate) to wells containing bound peptide probe of SEQ ID NO:41.

Aβ40 Dimer = settings: Mouse
Method: (§1) A plate-based ELISA-like assay was developed in which the above-described peptide probes may be used to capture and detect target amyloid beta protein (such as oligomers). […] Streptavidin-coated 96-well plates are prepared, followed by introduction of biotinylated peptide. Sample is then added to the wells and allowed to incubate, such as for two hours at room temperature. Any target amyloid beta protein in the sample will be capture by the immobilized peptide probe. The plate is then washed, such as using a low salt buffer to eliminate potential interfering factors (e.g. endogenous proteins, lipids, and other debris). The remaining amyloid beta aggregate-peptide probe complex is bound to a reporter antibody that is specific for the N-terminus of the amyloid beta sequence (6E10-HRP), and detected by addition of 3,3′,5,5′-tetramethylbenzidine (TMB).
(§2) Soluble brain extracts are prepared according to a known method. For example 5 mL tris-buffered saline (PH 7.4) is added per gram of frozen brain tissue, and then homogenized with a dounce homogenizer (25 strokes). The material is then centrifuged at 21,900× g for 30 minutes at 4 C. The resulting TBS supernatant (soluble extract) is used at 10-30% (v/v) final concentration in the following assays.

Aβ40 monomer [2] = molecular target: T1, Aβ40 monomer (Homo sapiens, UniProt P05067); test: Plate-based ELISA-like assay with immobilized biotinylated peptide probe; assay type: binding; settings: for Limit of detection, Aβ40 Monomer: up to 15 nM
Method: as §1, §2

Aβ42 Oligo (Type B) = Aβ42 Oligo (Type B) (Homo sapiens, UniProt P05067); test: as above; assay type: binding
Method: as §1, §2

Aβ42 monomer [3] = molecular target: T2, Aβ42 monomer (Homo sapiens, UniProt P05067); test: as above; assay type: binding; settings: for Limit of detection, Aβ42 Monomer: up to 15 nM
Method: as §1, §2

human serum albumin [4] = molecular target: T3, human serum albumin (Homo sapiens, UniProt P02768); test: as above; assay type: binding
Method: as §1, §2

synthetic Aβ42 oligomer = synthetic Aβ42 oligomer (Homo sapiens, UniProt P05067); test: Self-fluorescence assay of pyrene-labeled probe with synthetic Aβ42 oligomer; assay type: binding; settings: 70 nM probe
Method: 70 nM of the peptide probe of SEQ ID NO:2 is incubated with 4000, 2000, 1000, 450, 250 and 0 pM synthetic Aβ42 oligomer (in triplicate) in a solution consisting of 10 mM Hepes (pH 7.0), 0.0074% Tween20 and 30% (v/v) normal human CSF (Bioreclamations, Inc.) for 0, 3, and 18 hours at room temperature in a final volume of 200 μL in a microtiter plate. The plate is then analyzed using a Tecan safire^2 fluorescence plate reader. For each sample, the net self-fluorescence response (fluorescence emission from 370-385 nm) is determined by subtraction of the self-fluorescence response of the control (0 pM) from the fluorescence response of the experimental sample.
The specificity of the probe is confirmed as follows. 70 nM of the peptide probe of SEQ ID NO:22 is incubated with several potential substrates in a solution consisting of 10 mM Hepes (pH 7.0), 0.0074% Tween20 and 10% (v/v) normal human CSF. […] There also is a significant response to Aβ42 fiber down to at least 100 nN. […]
70 nM of each of the two peptoid probes 1 or 2 is incubated with 15, 5, 1.5 or 0 nM synthetic Aβ42 oligomer (in triplicate). […] The plate is then analyzed using a Tecan safire^2 fluorescence plate reader. For each sample, the self-fluorescence response (fluorescence emission from 370-385 nm) of the peptoid is plotted as a function of amyloid beta aggregate concentration.

Aβ42 fiber = Aβ42 fiber (Homo sapiens, UniProt P05067); test: Self-fluorescence specificity assay of probe in 10% human CSF; assay type: binding; design: unit not given here; settings: 70 nM probe; 10% (v/v) normal human CSF; FIG. 2
Method: (§3) The specificity of the probe is confirmed as follows. 70 nM of the peptide probe of SEQ ID NO:22 is incubated with several potential substrates in a solution consisting of 10 mM Hepes (pH 7.0), 0.0074% Tween20 and 10% (v/v) normal human CSF. […] There also is a significant response to Aβ42 fiber down to at least […]. […] Since fibers are easily removed from the reaction by a centrifugation step, specificity for amyloid beta oligomers is easily obtained.

Aβ40 fiber = Aβ40 fiber (Homo sapiens, UniProt P05067); test: as above; assay type: binding; settings: 70 nM probe; 10% (v/v) normal human CSF; FIG. 2
Method: as §3

Aβ40 monomer [5] = molecular target: T1, Aβ40 monomer; test: as above; assay type: binding; settings: 70 nM probe; 10% (v/v) normal human CSF; FIG. 2
Method: as §3

Aβ42 monomer [6] = molecular target: T2, Aβ42 monomer; test: as above; assay type: binding; settings: 70 nM probe; 10% (v/v) normal human CSF; FIG. 2
Method: as §3

carbonic anhydrase = test: as above; assay type: binding; settings: 70 nM probe; 10% (v/v) normal human CSF; FIG. 2
Method: as §3

human serum albumin [7] = molecular target: T3, human serum albumin; test: as above; assay type: binding; settings: 70 nM probe; 10% (v/v) normal human CSF; except at the highest dose, 0.16 mg/mL; FIG. 2
Method: as §3

human serum albumin [8] = molecular target: human serum albumin (human, UniProt P02768 25-609); test: plate assay, biotinylated probe on streptavidin plate, 6E10-HRP/TMB detection; Human column (brain extract)

## PBA-KLVFFAEDVGSNKHAIIELMK(PBA)GLVPR GSGK(biotin)-NH2 [SEQ ID NO:41]
[1]; 10% human TBS brain extract, FIG. 4B
  lowest amount of amyloid beta aggregate detected in plate assay (t-test): 28 pM
[1]; 30% human TBS brain extract, FIG. 5B
  amyloid beta aggregate detectable down to: ≤ 85 pM
[1]; Human
  Limit of detection, Aβ42 Oligo (Type A): ~28 pM
[1]; Mouse
  Limit of detection, Aβ42 Oligo (Type A): ~28 to 85 pM
[1]; buffer system, FIG. 4A
  lowest amount of amyloid beta aggregate detected in plate assay (t-test): 7 pM
Aβ40 Dimer
  Limit of detection, Aβ40 Dimer: 850 pM
Aβ40 monomer [2]; Human
  Limit of detection, Aβ40 Monomer: Not detected
Aβ40 monomer [2]; Mouse
  Limit of detection, Aβ40 Monomer: Not detected
Aβ40 monomer [2]; plate assay
  TMB response to Aβ40 monomer: little to no TMB response
Aβ42 Oligo (Type B); Human
  Limit of detection, Aβ42 Oligo (Type B): 8.5 pM
Aβ42 Oligo (Type B); Mouse
  Limit of detection, Aβ42 Oligo (Type B): ~8.5 pM
Aβ42 monomer [3]; Human
  Limit of detection, Aβ42 Monomer: Not detected
Aβ42 monomer [3]; Mouse
  Limit of detection, Aβ42 Monomer: Not detected
Aβ42 monomer [3]; plate assay
  TMB response to Aβ42 monomer: little to no TMB response
Human serum albumin [4]; Human, up to 0.15 mg/mL
  Limit of detection, has: Not detected
Human serum albumin [4]; Mouse
  Limit of detection, has: Not detected
Human serum albumin [4]; plate assay
  TMB response to human serum albumin: little to no TMB response

## PBA-KLVFFAEDVGSNKGAIIGLMK(PBA)rr-NH2 ({Butanoyl(4-pyren-1-yl)}-KLVFFAEDVGSNKGAIIGLMK(Butanoyl(4-pyren-1-yl))[dR][dR]-NH2; SMILES CC[C@H](C)[C@H](NC(=O)[C@H](C)NC(=O)CNC(=O)[C@H](CCCCN)NC(=O)[C@H](CC(N)=O)NC(=O)[C@H](CO)NC(=O)CNC(=O)[C@@H](NC(=O)[C@H](CC(=O)O)NC(=O)[C@H](CCC(=O)O)NC(=O)[C@H](C)NC(=O)[C@H](Cc1ccccc1)NC(=O)[C@H](Cc1ccccc1)NC(=O)[C@@H](NC(=O)[C@H](CC(C)C)NC(=O)[C@H](CCCCN)NC(=O)CCCc1ccc2ccc3cccc4ccc1c2c34)C(C)C)C(C)C)C(=O)N[C@H](C(=O)NCC(=O)N[C@@H](CC(C)C)C(=O)N[C@@H](CCSC)C(=O)N[C@@H](CCCCNC(=O)CCCc1ccc2ccc3cccc4ccc1c2c34)C(=O)N[C@H](CCCNC(=N)N)C(=O)N[C@H](CCCNC(=N)N)C(N)=O)[C@@H](C)CC) [SEQ ID NO:22, WT, with 2 C-terminal dArg residues, and alternate label site]
Synthetic Aβ42 oligomer; 10% (v/v) normal human CSF, FIG. 2
  peptide probe fluorescence response to Aβ42 oligomer: strong and dose-dependent response
Aβ42 fiber
  lowest Aβ42 fiber concentration giving significant response: ≤ 100
Aβ40 fiber
  peptide fluorescence response to Aβ40 fiber: little or no peptide fluorescence response
Aβ40 monomer [5]
  peptide fluorescence response to Aβ40 monomer: little or no peptide fluorescence response
Aβ42 monomer [6]
  peptide fluorescence response to Aβ42 monomer: little or no peptide fluorescence response
Carbonic anhydrase
  peptide fluorescence response to carbonic anhydrase: little or no peptide fluorescence response
Human serum albumin [7]
  peptide fluorescence response to human serum albumin: little or no peptide fluorescence response

## PBA-KLVFFAEDVGSNKHAIIELMK(PBA)-NH2 ({Butanoyl(4-pyren-1-yl)}-KLVFFAEDVGSNKHAIIELMK(Butanoyl(4-pyren-1-yl))-NH2; SMILES CC[C@H](C)[C@H](NC(=O)[C@H](C)NC(=O)[C@H](Cc1c[nH]cn1)NC(=O)[C@H](CCCCN)NC(=O)[C@H](CC(N)=O)NC(=O)[C@H](CO)NC(=O)CNC(=O)[C@@H](NC(=O)[C@H](CC(=O)O)NC(=O)[C@H](CCC(=O)O)NC(=O)[C@H](C)NC(=O)[C@H](Cc1ccccc1)NC(=O)[C@H](Cc1ccccc1)NC(=O)[C@@H](NC(=O)[C@H](CC(C)C)NC(=O)[C@H](CCCCN)NC(=O)CCCc1ccc2ccc3cccc4ccc1c2c34)C(C)C)C(C)C)C(=O)N[C@H](C(=O)N[C@@H](CCC(=O)O)C(=O)N[C@@H](CC(C)C)C(=O)N[C@@H](CCSC)C(=O)N[C@@H](CCCCNC(=O)CCCc1ccc2ccc3cccc4ccc1c2c34)C(N)=O)[C@@H](C)CC) [SEQ ID NO:2, Salt bridge at G29H and G33E]
Synthetic Aβ42 oligomer; 10 mM Hepes pH 7.0, 0.0074% Tween20, 30% (v/v) normal human CSF, emission 370-385 nm, FIG. 1
  Aβ42 oligomer concentration statistically distinguishable from the control reaction (net self-fluorescence response, t-test): 450 pM

B1: peptide probe of SEQ ID NO:41 (peptide)
peptide: {Butanoyl(4-pyren-1-yl)}-KLVFFAEDVGSNKHAIIELMK(Butanoyl(4-pyren-1-yl))GLVPRGSGK(Biotin)-NH2
SMILES: CC[C@H](C)[C@H](NC(=O)[C@H](C)NC(=O)[C@H](Cc1c[nH]cn1)NC(=O)[C@H](CCCCN)NC(=O)[C@H](CC(N)=O)NC(=O)[C@H](CO)NC(=O)CNC(=O)[C@@H](NC(=O)[C@H](CC(=O)O)NC(=O)[C@H](CCC(=O)O)NC(=O)[C@H](C)NC(=O)[C@H](Cc1ccccc1)NC(=O)[C@H](Cc1ccccc1)NC(=O)[C@@H](NC(=O)[C@H](CC(C)C)NC(=O)[C@H](CCCCN)NC(=O)CCCc1ccc2ccc3cccc4ccc1c2c34)C(C)C)C(C)C)C(=O)N[C@H](C(=O)N[C@@H](CCC(=O)O)C(=O)N[C@@H](CC(C)C)C(=O)N[C@@H](CCSC)C(=O)N[C@@H](CCCCNC(=O)CCCc1ccc2ccc3cccc4ccc1c2c34)C(=O)NCC(=O)N[C@@H](CC(C)C)C(=O)N[C@H](C(=O)N1CCC[C@H]1C(=O)N[C@@H](CCCNC(=N)N)C(=O)NCC(=O)N[C@@H](CO)C(=O)NCC(=O)N[C@@H](CCCCNC(=O)CCCC[C@@H]1SC[C@@H]2NC(=O)N[C@@H]21)C(N)=O)C(C)C)[C@@H](C)CC
notes: P22 with a thrombin site linker and biotin at the C-terminus, immobilised on streptavidin-coated plates; also called AD317; biotinylated peptide probe
Human serum albumin [8]
  binding result: no binding (tested: up to 0.15 mg/mL)
